One compound from patent US6531512B1, “Method of treating cancer in patients having a deficiency in p53 tumor suppressor gene” (Health Research Inc., priority 1998, dated 2003) can be followed below.

Marks after values point to notes of the source that are not given here.

One test relates to mRNA for p53 and p21. The test is described as follows: Northern blot of p53 and p21 mRNA in MALME-3M cells. In kind it is cell-based, human. Particulars: asynchronous, 10 μM. On the procedure: Asynchronously growing MALME-3M cells were treated for 0 to 48 hours with 10 μM DENSPM as described in Example 2. Northern blots were used to detect mRNA for p53 and p21. The Northern blot procedure is described by Fogel-Petrovic et al. in Molec. Pharn, 52:69-74 (1997); and Biochemistry, 35:14436-14444 (1996). cDNA probes used in Nothern blot hybridization of p21 and p53 mRNA were obtained, respectively, from Dr. Bert Vogelstein (Johns Hopkins Oncology Center, Baltimore, Md.; El-Deiry et al., Cell, 75:817-825) and from Dr. Stephen Friend (Seattle, Wash.; Ishioka et al., Oncogene 10:1485-1492 (1995)). The relative increase in mRNA with analog treatment was normalized to the […] (GAPDH) signal to account for lane loading differences.

The subject of test [1] is SK-MEL-28 human melanoma cells. The test is described as follows: Cell cycle distribution of SK-MEL-28 cells by flow cytometry. The class given is cell-based. Particulars: SK-MEL-28 (mt-p53), attached cells, 10 μM, 24 hours treatment (footnote). How it is done: MALME-3M cells were cultured as described in Example 1 and treated with 10 μM DENSPM as described in Example 2. Cell cycle arrest was monitored using a FACScan flow cytometry unit (Becton Dickinson, San Jose, Calif.) according to the method of Krishan (1975) J. Cell Biol. 66:[…]. Untreated MALME-3M cell cultures were used as controls.
MALME-3M human melanoma cells were cultured as described in Example 1 and treated continuously with 10 μM DENSPM or 10 μM spermine (SPM) for 48 hours. SK-MEL-28 cells were also cultured as described in Example 1 and treated with 10 μM DENSPM for 24 hours. Untreated cells were used as a control.
The effect of DENSPM and spermine on cell growth was monitored using a Coulter Counter (see Example 2). The effect on cell cycle was monitored by flow cytometry as described in Example 3.

For test [2], the system named is S-adenosylmethionine decarboxylase (SAMDC). Description: Polyamine enzyme activity in treated melanoma cells: SAMDC. In kind it is cell-based, human. The note with it: 10 μM. How it is done: (§1) MALME-3M human melanoma cells were cultured as described in Example 1 and treated with 10 μM DENSPM or 10 μM spermine (SPM) as described in Example 4. SK-MEL-28 cells were also cultured as described in Example 1 and treated with 10 μM DENSPM as describe in Example 4. Untreated cells were used as a control.
(§2) After treatment with DENSPM or spermine, biochemical parameters including polyamine enzymes activity, polyamine pools and analog accumulation were monitored as described by Kramer et al, J. Biol. Chem., 270:2124-32 (1995) and Kramer et al., Cancer Res., 57:5521-5527 (1997). Polyamine enzyme activity was monitored for ornithine […] (ODC); S-adenosylmethionine decarboxylase (SAMDC); and spermidine/spermine N^1-acetyltransferase (SSAT). Polyamine pools was monitored for putrescine (Put); spermidine (Spd); and spermine (Spm).

Test [3] concerns SK-MEL-28 human melanoma cells. The test is described as follows: Cell growth / apoptotic response of SK-MEL-28 cells (Coulter Counter, growth kinetics). The class given is cell-based. Particulars: SK-MEL-28 (mt-p53), 10 μM, 48 hours.
For test [4], the system named is spermidine/spermine N^1-acetyltransferase (SSAT). The test is described as follows: Polyamine enzyme activity in treated melanoma cells: SSAT induction. In kind it is cell-based, human. The note with it: SK-MEL-28 cells, 24 hours. On the procedure:
as §1, §2
Enzyme activity and polyamine pools were measured as described in Example 5.

The subject of test [5] is cell cycle regulatory proteins (p53, p21, p16, p27). Description: Western blot of cell cycle regulatory proteins in SK-MEL-28 cells. The class given is cell-based, human. Particulars: SK-MEL-28, 10 μM. On the procedure:
MALME-3M and SK-MEL-28 cells cultured as described in Example 4 were treated with 10 μM DENSPM for 0 to 48 hours. Western blot analysis of cell cycle regulatory proteins, including p53, p21, p27, ppRb, pRb, cyclin D1 and PCNA was performed following the procedure described by Fogel-Petrovic et al. in Molec. Pharm, 52:69-74 (1997); and Biochemistry, 35:14436-14444 (1996). Antibodies used for detecting the proteins were obtained commercially as follows: p53 from Santa Cruz Biotechnology, Inc. (Santa Cruz, Calif.); PCNA and Cyclin D1 from Oncogene Research Products (Cambridge, Mass.); Rb and p21 from PharMigen (San Diego, Calif.); p27 from Transduction labs (Lexington, Ky.) and β-actin (used to correct for variations in loading) from Sigma Chemical Co. (St. Louis, Mo.). Western blot analysis of each of these proteins was performed at least three times.
The effects of 10 μM DENSPM on MALME-3M and SK-MEL-28 cell growth and cell cycle regulatory proteins were determined as described in Examples 2 and 3, respectively. Panel A is a comparison of the effects of DENSPM on cell growth. Panel B is a comparison of cell cycle regulatory proteins. […] In contrast, p16 was not detectable in MALME-3M cells. Data is representative of at least two experiments.

A further test relates to SK-MEL-28 cells. Description: Apoptosis by proton NMR of membrane lipids (methylene/methyl ratio). In kind it is cell-based, human. The note with it: 10 μM. On the procedure:
Apoptosis of MALME-3M and SK-MEL-28 cells due to treatment with 10 μM DENSPM was quantified using proton nuclear magnetic resonance (NMR) spectroscopy. NMR was used to detect membrane phospholipid spectral intensity changes which correlate with surface expression of phosphatidylserine, an early marker of apoptosis. Changes in methylene and methyl peaks were detected by the […] described by Blankenberg et al., Blood, 89:3778-3786 (1997).
Intensity changes in membrane lipids was measured using NMR after 72 hours of continuous treatment with 10 μM DENSPM. […] The SK-MEL-28 cells undergo a rapid spectral ratio change which correlates with the massive cell loss seen in FIG. 4. Maximal cell death occurred by 48 hours in SK-MEL-28 cells. The data represent the mean ratio±standard deviation.
For perspective, a methylene to methyl spectral ratio of about 1 is typical of untreated cells while a ratio of about 3 is the maximum attainable with most apoptotic responses. Thus, the ratio of 2.6 observed with DENSPM-treated SK-MEL-28 cells at 48 hours represents a full scale response.

For test [6], the system named is MALME-3M human melanoma cells. The test is described as follows: Polyamine pools in MALME-3M cells. In kind it is cell-based. The note with it: MALME-3M (wt-p53), 10 μM, Table 2 (24 hours treatment). On the procedure: as §1, §2

`CCNCCCNCCCNCCCNCC` [DENSPM, N^1,N^11-diethylnorspermine]: in the test on mRNA for p53 and p21, the “start of p21 mRNA increase” value is 12 h. In the test on mRNA for p53 and p21 (0 to 48 hours, normalized to GAPDH), the “p53 mRNA” value is given as “remained constant”. Further, the “p21 mRNA increase” value in the test with mRNA for p53 and p21 (48 hours, normalized to GAPDH) is recorded as “about 20 fold”. In addition, in test [1], the “% Total Cells, G1” value is given as 74** %; the “% Total Cells, G2/M” value is recorded as 9** %; the “% Total Cells, S” value is 17** %. In test [2] (MALME-3M (wt-p53), Table 2 (24 hours treatment)), the SAMDC activity stood at 40 pmol/hr/mg protein. The compound further came in with an SAMDC activity in test [2] (SK-MEL-28 (mt-p53), Table 2, 24 hours) of 25 pmol/hr/mg protein. For the same compound, the “% Control Growth” value in test [3] was determined as 0%. The “SSAT activity” value in test [4] was 31,920 pmol/min/mg. Moreover, in test [4] (Table 4), the “Enzyme Activities, SSAT” value was determined as 31920 pmol/min/mg protein. For the same compound, in test [5], the “cdk inhibitors p16 and p27” value is “not increased”; the “p21 protein induction with treatment” value is reported as “not induced”. The “induction of p53” value in test [5] (24 hours) is listed as “no induction”. Moreover, the “time of maximal cell death” value in the test with SK-MEL-28 cells was at most 48 h. The “methylene to methyl spectral ratio” value with SK-MEL-28 cells (48 hours) was 2.6. For the same compound, in test [6], the “Polyamine Pools, Put” value was determined as 205 pmol/10^6 cells; the “Polyamine Pools, Spd” value amounted to 60 pmol/10^6 cells; the “Polyamine Pools, Spm” value worked out at 285 pmol/10^6 cells.
